Laboratory results taken from PMC5333415, “Enhancement of scutellarin oral delivery efficacy by vitamin B12-modified amphiphilic chitosan derivatives to treat type II diabetes induced-retinopathy” (Journal of Nanobiotechnology, 2017).
≈ marks a conversion by molar mass, not a printed value. Where two headings read alike, the source gives them in different places.

Columns and labels:
[1] = system: retina of type II diabetic rats; test: Retinal histopathology (hematoxylin and eosin), type 2 diabetic model; assay type: in vivo, Sprague–Dawley rats; details: 40 mg/kg/day scutellarin
Experimental: (§1) Type 2 diabetes was induced in male Sprague–Dawley rats (weighing 230–250 g, Experimental Animal Center of Sun Yat-sen University, China. Certificate No: SCXK (Q) 2011-0029). All animals were housed five per cage in a room and maintained at a constant temperature (22 °C) under a 12/12 h light/dark cycle. All procedures were carried out according to the National Institutes of Health Guide for Care and Use of Laboratory Animals and were approved by the Bioethics Committee of Sun Yat-sen University. Rats were randomly assigned to a control group, a Scu group (normal rats with 40 mg/kg/day scutellarin treatments), and five type II diabetes model groups (n = 8/group). The control and Scu groups were fed for 16 weeks on regular standard diets, while rats from type II diabetes model groups (T2D) were fed a high-fat (HFS, Guangdong Medical Laboratory Animal Center, Guangzhou, China) diet for 16 weeks that consisted of 30% from total kcal from fats, 55% from carbohydrates and 15% from protein. […] Blood glucose and body weight were monitored 3 days after the STZ or citrate buffer injection, and once a week thereafter. […]

[2] = system: VEGF; test: Western blot of retinal homogenates, VEGF; assay type: in vivo, Sprague–Dawley rats; details: diabetic rats, 40 mg/kg/day scutellarin, 8 weeks, compared to diabetic rats treated with or without Chit-DC
Experimental: as §1

[3] = cited from earlier work
[4] = system: vWF; test: Western blot of retinal homogenates, vWF; assay type: in vivo, Sprague–Dawley rats; details: diabetic rats, 40 mg/kg/day scutellarin, 8 weeks, compared to diabetic rats treated with or without Chit-DC
Experimental: as §1

[5] = Solubility; assay type: physicochemical
[6] = system: Caco-2 cell monolayers; test: Caco-2 cell permeability (AP to BL transport); assay type: in vitro ADME, human; details: estimated from Papp based on the previous research
Experimental: (§2) Caco-2 cells were seeded in 12-well transport inserts at a density of 2 × 10^5 cells/cm^2 in DMEM. Cells were maintained at 37 °C in a humidified atmosphere containing 5% CO2 for 21 days. Monolayers with transendothelial electrical resistance values above 300 Ω cm^2 were used in this study. On the day of the transport experiments, the culture medium was replaced with hank’s balanced salt solution (HBSS). Before the assay, Caco-2 cells monolayers was rinsed twice and incubated with the transport medium for an hour. After removing the transport medium, scutellarin, Chit-DC-Scu, Chit-DC-VB12-Scu (10 μg/ml scutellarin) alone or in the presence of IF ([…], 20 μl of a 100 IU/ml solution) were add to the apical side (0.5 ml) and 1.5 ml DMEM was added to the basolateral side of Transwell inserts. Cells were maintained at 37 °C in a humidified atmosphere containing 5% CO2 with orbital shaking at 50 rpm throughout the assay. At pre-determined intervals of 0, 30, 60, 90 and 120 min, 50 μl of transport buffer at the basolateral side was collected and mixed with the same volume of methanol, and an equal amount of DMEM was instantly added to the basolateral side to maintain a constant dissolution volume. The assay was performed in triplicate. Concentrations of scutellarin, Chit-DC-Scu and Chit-DC-VB12-Scu in corresponding samples were assessed by HPLC [35, 36].

[7] = Caco-2 cell permeability (AP to BL transport); assay type: in vitro ADME, human; details: human; Caco-2 monolayers, 10 μg/ml scutellarin, without IF; read-out: Papp, AP side to BL side
Experimental: as §2

[8] = system: membranes over expressing several common transporters; parameters: method as in PMID 27586020; details: cited from earlier work
[9] = Pharmacokinetics study in vivo, single oral dose; details: male, Sprague-Dawley, rat, rats, oral gavage, scutellarin dose 40 mg/kg, n = 6, mean ± SD; for half-life: plasma, po, 40 mg/kg
Experimental: Male Sprague–Dawley rats (weighing 220–250 g) were fasted for 12 h, but allowed water ad libitum the day before drug administration. Scutellarin, Chit-DC-Scu, and Chit-DC-VB12-Scu were resuspended in PBS and administered to rats (at the same scutellarin dose of 40 mg/kg) by oral gavage. Blood samples (0.2 ml) were collected from the tail vein of each rat before dosing and at 0.25, 0.5, 0.75, 1, 2, 3, 5, 8, 12, 24 h post-dosing. An equal volume of 0.9% saline solution was injected after each collection. Plasma samples were obtained by centrifugation at 10,000 rpm for 10 min immediately after blood collection and were stored at −20 °C until analysis. HPLC (Agilent 1100, USA) was used to determine the concentration of scutellarin in plasma.

[10] = system: central retinal artery of type II diabetic rats; test: Color Doppler sonography of central retinal vasculature, type 2 diabetic model; assay type: in vivo, Sprague–Dawley rats; details: 40 mg/kg/day scutellarin
Experimental: Type 2 diabetes was induced in male Sprague–Dawley rats (weighing 230–250 g, Experimental Animal Center of Sun Yat-sen University, China. Certificate No: SCXK (Q) 2011-0029). All animals were housed five per cage in a room and maintained at a constant temperature (22 °C) under a 12/12 h light/dark cycle. All procedures were carried out according to the National Institutes of Health Guide for Care and Use of Laboratory Animals and were approved by the Bioethics Committee of Sun Yat-sen University. Rats were randomly assigned to a control group, a Scu group (normal rats with 40 mg/kg/day scutellarin treatments), and five type II diabetes model groups (n = 8/group). The control and Scu groups were fed for 16 weeks on regular standard diets, while rats from type II diabetes model groups (T2D) were fed a high-fat (HFS, Guangdong Medical Laboratory Animal Center, Guangzhou, China) diet for 16 weeks that consisted of 30% from total kcal from fats, 55% from carbohydrates and 15% from protein. After 8 weeks on the HFS diet, rats in the T2D groups were fasted overnight and each rat received a single intraperitoneal injection of streptozotocin (STZ, Sigma, USA) at a dose of 30 mg/kg body weight the following morning while the rats in the control group were injected with an equal volume of citrate buffer. The STZ was freshly diluted in citrate buffer (0.1 mol/l, pH 4.0). After the injection, the HFS diet feeding was continued. Blood glucose and body weight were monitored 3 days after the STZ or citrate buffer injection, and once a week thereafter. […]
Prior to sacrifice, all rats were anesthetized and color Doppler sonography analysis of the right eye was performed. […] At least three measurements were recorded for each animal and the mean of the three readings was taken as the representative value. The resistivity index (RI) of the central retinal artery (CRA) was calculated by subtracting the diastolic velocity (DV) from the peak systolic velocity (SV) and then dividing by the systolic velocity [(SV − DV)/SV] […]

[11] = system: VEGFR2; test: Western blot of retinal homogenates, VEGFR2; assay type: in vivo, Sprague–Dawley rats; details: diabetic rats, 40 mg/kg/day scutellarin, 8 weeks, compared to diabetic rats treated with or without Chit-DC
Experimental: as §1

[12] = T2D rats, intragastric, 8 weeks, compared to DM rats

Row | Compound | retinal morphology (HE staining) in normal rats [1] | expression of VEGF in the retina [2] | water solubility [3] [µg/mL] | expression of vWF in the retina [4] | solubility in distilled water ([5]; distilled water) | solubility in methanol and PBS solution ([5]; methanol and PBS solution (pH7.2)) | scutellarin absorbed by the small intestine [6] | Papp at 120 min, 10 μg/ml [7] [×10⁻⁶ cm/s] | increase of Papp(AP-BL) [8] [fold] | half-life ([9]; read-out: T1/2(α) (converted)) [h] | half-life ([9]; read-out: T1/2(β) (converted)) [h] | Cmax ([9]; plasma scutellarin) [ng/mL] | Tmax ([9]; plasma scutellarin) [h] | retinal blood flow velocity [10, 12] | retinal resistivity index (RI) [10, 12] | blood flow velocity or RI in normal rats ([10]; normal (non-diabetic) rats) | expression of VEGFR2 in the retina [11] | water solubility of triamcinolone acetonide acetate ([3]; free drug versus loaded in deoxycholic acid-modified chitosan nanoparticles) [µg/mL]
1 | O=C(O)[C@H]1O[C@@H](Oc2cc3oc(-c4ccc(O)cc4)cc(=O)c3c(O)c2O)[C@H](O)[C@@H](O)[C@@H]1O [Scu, 4′,5,6-trihydroxyflavone-7-O-glucuronide] | continuous with normal capillary structure | downregulated | 160 (≈ 346 µM) | downregulated | poorly dissolved | soluble | about 1% | 0.32 | 3.5 | 0.405 ± 0.055 | 1.88 ± 0.105 | 129 ± 85.5 | 1.24 ± 0.025 | increased blood flow velocities | reduced retinal RI values | No significant changes in blood flow velocity or RI | downregulated | –
2 | CC(=O)OCC(=O)[C@@]12OC(C)(C)O[C@@H]1C[C@H]1[C@@H]3CCC4=CC(=O)C=C[C@]4(C)[C@@]3(F)[C@@H](O)C[C@@]12C [triamcinolone acetonide acetate] | – | – | – | – | – | – | – | – | – | – | – | – | – | – | – | – | – | 300
